Assay results as given in patent publication US20240360114A1 (SIRONAX LTD., priority 2021, published 2024).

The molecules below were run on HT-1080 cells (assay: HT-1080 cell viability assay (ferroptosis induced by RSL3, Cell Titer-Glo)). Settings: Homo sapiens, HT-1080, 20 h, ferroptosis inducer RSL3, 20 hours, ferroptosis inhibitory activity, Table 2.
Type: cell-based
Experimental: Example 2. Determination of EC50 Values in HT-1080 Cell Viability Assay
HT-1080 (ATCC, CCL-121) cells (6000 in 100 μl) were seeded in 96-well plates (Corning) and cultured in a 37° C. incubator with a humidified atmosphere of 5% CO2 for overnight. Cells were then treated with ferroptosis inducer RSL3 (TargetMol) and a 3-fold, 10-point serial dilution series of compounds with 1.1 μM as the highest concentration, for 20 hours. Cell viability was assessed using the Cell Titer-Glo Kit (Promega). The luminescence intensity was measured with a microplate reader (Envision, PerkinElmer), and cell viability was calculated by normalizing the data to untreated controls. The EC50 values of the compounds (e.g., Compounds 1-573 and 574-661) were calculated in GraphPad Prism (GraphPad Software, Inc., San Diego, CA, USA). The curves were fitted using a non-linear regression model with a sigmoidal dose response.

**Q.** With CC(C)(C)c1ccc(NC2CCC(N)CC2)cc1C#N (stereo not shown) [Compound 218, 5-((4-aminocyclohexyl)amino)-2-(tert-butyl)benzonitrile] as the molecule, how does the EC50 read?
**A.** 100 to 1000 nM

**Q.** With CCc1ccc(NC2CCC(N)CC2)cc1C (stereo not shown) [Compound 304, N1-(4-ethyl-3-methylphenyl)cyclohexane-1,4-diamine] as the molecule, how does the EC50 read?
**A.** 100 to 1000 nM

**Q.** With CC(C)(C)c1ccc(NC2CCC(CCCN)CC2)cc1 (stereo not shown) [Compound 287, N-(4-(3-aminopropyl)cyclohexyl)-4-(tert-butyl)aniline] as the molecule, how does the EC50 read?
**A.** 0.1 to 100 nM

**Q.** With CC1(C)CCC(c2ccc(NC3CCC(N)CC3)cc2)CC1 (stereo not shown) [Compound 74, N1-(4-(4,4-dimethylcyclohexyl)phenyl)cyclohexane-1,4-diamine] as the molecule, how does the EC50 read?
**A.** 0.1 to 100 nM

**Q.** CC(C)(C)c1ccc(NC[C@H]2CC[C@@H](N)CC2)cc1 [Compound 288, N-(((1s, 4s)-4-aminocyclohexyl)methyl)-4-(tert-butyl)aniline] was tested. Which EC50 did it give?
**A.** 0.1 to 100 nM

**Q.** CC(C)(C)c1ccc(NCCN2CCOCC2)cc1 [Compound 206, U4-(tert-butyl)-N-(2-morpholinoethyl)aniline] was tested. Which EC50 did it give?
**A.** 1000 to 10000 nM

**Q.** How did the EC50 turn out when CC(C)(C)c1ccc(NC2CCC(CNc3cn[nH]c3)CC2)cc1 (stereo not shown) [Compound 348, N-((4-((4-(tert-butyl)phenyl)amino)cyclohexyl)methyl)-1H-pyrazol-4-amine] was run?
**A.** 0.1 to 100 nM

**Q.** Which EC50 does the source give for O=C1NC[C@H](C(=O)NC2CC(Nc3ccc(C4CCCCC4)cc3)C2)N1 (stereo partly drawn) [Compound 113, (R)—N-(3-((4-cyclohexylphenyl)amino)cyclobutyl)-2-oxoimidazolidine-4-carboxamide] here?
**A.** 100 to 1000 nM

**Q.** For CC[C@@H]1CN(c2ccc(NC3CC4(CC(N)C4)C3)c(C)n2)C[C@@H](CC)O1 (stereo partly shown) [Compound 550], which EC50 is on record?
**A.** 0.1 to 100 nM

**Q.** Cc1cc(N2CCCCC2)ccc1NC1C[C@H]2CC(N)C[C@H]2C1 (stereo partly drawn) [Compound 392, (3aR,6aS)-N2-(2-methyl-4-(piperidin-1-yl)phenyl) octahydropentalene-2,5-diamine] was tested. Which EC50 did it give?
**A.** 0.1 to 100 nM

**Q.** How did the EC50 turn out when CC(C)(C)c1ccc(NC2CCC(CN)CC2)cc1 (stereo not shown) [Compound 96, N-(4-(aminomethyl)cyclohexyl)-4-(tert-butyl)aniline] was run?
**A.** 0.1 to 100 nM

**Q.** Cc1cc(N2CCC(C)(C)CC2)ccc1NC[C@H]1CC[C@H](N)CC1 [Compound 382, N-(((1r,4r)-4-aminocyclohexyl)methyl)-4-(4,4-dimethylpiperidin-1-yl)-2-methylaniline] was tested. Which EC50 did it give?
**A.** 0.1 to 100 nM

**Q.** How did the EC50 turn out when NC1CC(Nc2ccc(C3CCCCC3)cc2)C1 (stereo not shown) [Compound 132, N1-(4-cyclohexylphenyl)cyclobutane-1,3-diamine] was run?
**A.** 0.1 to 100 nM

**Q.** O=C1NC[C@H](C(=O)NCC2CCC(Nc3ccc(N4CCC(C(F)(F)F)CC4)cc3)CC2)N1 (stereo partly drawn) [Compound 18, (R)-2-oxo-N-((4-((4-(4-(trifluoromethyl)piperidin-1-yl)phenyl)amino)cyclohexyl)methyl)imidaz olidine-4-carboxamide] was tested. Which EC50 did it give?
**A.** 0.1 to 100 nM

**Q.** Cc1cc(N2CCC(C(F)(F)F)CC2)c(Cl)cc1NC1CCC(N)CC1 (stereo not shown) [Compound 56, N1-(5-chloro-2-methyl-4-(4-(trifluoromethyl)piperidin-1-yl)phenyl)cyclohexane-1,4-diamine] was tested. Which EC50 did it give?
**A.** 0.1 to 100 nM

**Q.** How did the EC50 turn out when CN(C)C(=O)C1CCC(Nc2ccc(C3CCC(C)(C)CC3)cc2)CC1 (stereo not shown) [Compound 89, 4-((4-(4,4-dimethylcyclohexyl)phenyl)amino)-N,N-dimethylcyclohexane-1-carboxamide] was run?
**A.** 0.1 to 100 nM

**Q.** CC(C)(C)c1ccc(NC2C3CC4CC2CC(N)(C4)C3)cc1 (stereo not shown) [Compound 95, N^4-(4-(tert-butyl)phenyl)adamantane-1,4-diamine] was tested. Which EC50 did it give?
**A.** 0.1 to 100 nM

**Q.** How did the EC50 turn out when CC(C)(C)c1ccc(NC2CCC(N)CC2)c(C#N)c1 (stereo not shown) [Compound 187, 2-((4-aminocyclohexyl)amino)-5-(tert-butyl)benzonitrile] was run?
**A.** 1000 to 10000 nM

Same assay, conditions: Homo sapiens, HT-1080, 20 h, ferroptosis inducer RSL3, 20 hours, ferroptosis inhibitory activity, Table 3

**Q.** How did the EC50 turn out when CC1(C)CN(c2ccc3cc(NC4CC5(CC(N)C5)C4)ccc3n2)CC(C)(C)O1 (stereo not shown) [Compound 646, N2-(2-(2,2,6,6-tetramethylmorpholino)quinolin-6-yl)spiro[3.3]heptane-2,6-diamine] was run?
**A.** 0.1 to 100 nM
